# Laboratory results taken from patent publication US12077503B2, “Substituted cyclic amides and their use as herbicides” (FMC CORPORATION, priority 2015, dated 2024).
# Where two headings read alike, the source gives them in different places.
# Columns and labels:
# Assay in all cases: Test A postemergence
# Type in all cases: in vivo
# corn (Zea mays) = conditions: Zea mays, post-emergence, 240 h; for plant injury at 125 g/ha: 125 g ai/ha, read-out: Corn plant response rating (0 to 100 scale); for plant injury at 500 g/ha / Corn plant response rating (crop injury, 0 = no effect, 100 = complete kill) at 500 g/ha: 500 g ai/ha; for plant injury at 500 g/ha: 0 to 100 scale, 0 is no effect, 100 is complete control, read-out: Corn plant response rating; for Corn plant response rating (crop injury, 0 = no effect, 100 = complete kill) at 500 g/ha: visual injury, 0 to 100 scale (0 no effect, 100 complete control), approx. 10 d
# How it was run: (§1)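 Visual injury scores from 0, no effect, to 100, complete control, were assigned versus untreated controls roughly 10 d after treatment in the greenhouse. Test chemicals, formulated with surfactant in a non-phytotoxic solvent, were applied to planted seeds as a preemergence soil spray or postemergence to one- to two-leaf plants 2 to 10 cm tall, in loam–sand soil.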
# [1] = tested on: ragweed (common ragweed, Ambrosia elatior); conditions: Ambrosia artemisiifolia, post-emergence, 240 h; for pest or weed control at 125 g/ha: 125 g ai/ha, read-out: Ragweed plant response rating (0 to 100 scale); for pest or weed control at 500 g/ha: 500 g ai/ha
# How it was run: as §1
# [2] = tested on: barnyardgrass (Echinochloa crus-galli); conditions: Echinochloa crus-galli, post-emergence, 240 h; for pest or weed control at 125 g/ha: 125 g ai/ha; for pest or weed control at 500 g/ha: 500 g ai/ha
# How it was run: as §1
# [3] = tested on: Galium (catchweed bedstraw, Galium aparine); conditions: Galium, post-emergence, 240 h; for pest or weed control at 125 g/ha: 125 g ai/ha, read-out: Galium plant response rating (0 to 100 scale); for pest or weed control at 500 g/ha: 500 g ai/ha
# How it was run: as §1
# Kochia (Kochia scoparia) = conditions: Bassia scoparia, post-emergence, 240 h; for pest or weed control at 125 g/ha: 125 g ai/ha, read-out: Kochia plant response rating (0 to 100 scale); for pest or weed control at 500 g/ha: 500 g ai/ha
# How it was run: as §1
# [4] = postemergence, visual injury vs untreated controls after approx. 10 d, 0 = no effect, 100 = complete control
# [5] = postemergence, 0 to 100 scale, 0 is no effect, 100 is complete control, read-out: Ragweed plant response rating
# [6] = postemergence, visual injury vs untreated controls after approx. 10 d, 0 = no effect, 100 = complete control, read-out: Barnyardgrass plant response rating (0 to 100 scale)
# [7] = postemergence, 0 to 100 scale, 0 is no effect, 100 is complete control, read-out: Barnyardgrass plant response rating
# [8] = postemergence, 0 to 100 scale, 0 is no effect, 100 is complete control, read-out: Galium plant response rating
# [9] = Postemergence, visual rating about 10 d after treatment
# [10] = Postemergence, visual injury, 0 to 100 scale (0 no effect, 100 complete control), approx. 10 d, read-out: Plant response rating, Ragweed
# [11] = Postemergence, visual injury, 0 to 100 scale (0 no effect, 100 complete control), approx. 10 d, read-out: Plant response rating, Galium
# [12] = postemergence, 0 to 100 scale, 0 is no effect, 100 is complete control, read-out: Kochia plant response rating
SMILES,plant injury at 125 g/ha (corn (Zea mays); [4]),plant injury at 500 g/ha (corn (Zea mays); postemergence),"pest or weed control at 125 g/ha [1, 4]","pest or weed control at 500 g/ha [1, 5]","pest or weed control at 125 g/ha [2, 6]","pest or weed control at 500 g/ha [2, 7]","pest or weed control at 125 g/ha [3, 4]","pest or weed control at 500 g/ha [3, 8]",plant injury at 125 g/ha (corn (Zea mays); [9]),"Corn plant response rating (crop injury, 0 = no effect, 100 = complete kill) at 500 g/ha (corn (Zea mays); Postemergence)","pest or weed control at 125 g/ha [1, 9]","pest or weed control at 500 g/ha [1, 10]","pest or weed control at 125 g/ha ([2]; Postemergence, visual rating about 10 d after treatment, read-out: Barnyardgrass plant response rating (0 to 100 scale, 0 no effect, 100 complete control))","pest or weed control at 500 g/ha ([2]; Postemergence, visual injury, 0 to 100 scale (0 no effect, 100 complete control), approx. 10 d, read-out: Plant response rating, Barnyardgrass)","pest or weed control at 125 g/ha [3, 9]","pest or weed control at 500 g/ha [3, 11]",pest or weed control at 125 g/ha (Kochia (Kochia scoparia); [9]),"pest or weed control at 500 g/ha (Kochia (Kochia scoparia); Postemergence, visual injury, 0 to 100 scale (0 no effect, 100 complete control), approx. 10 d, read-out: Plant response rating, Kochia)",pest or weed control at 125 g/ha (Kochia (Kochia scoparia); [4]),pest or weed control at 500 g/ha (Kochia (Kochia scoparia); [12])
Cc1ccc([C@H]2CCN(C)C(=O)[C@@H]2C(=O)Nc2cccc(Cl)c2F)cc1 [Compound 1223],0%,0%,0%,20%,30%,50%,20%,40%,–,–,–,–,–,–,–,–,–,–,–,–
CN1C[C@H](c2ccc(C(F)(F)F)cc2)[C@@H](C(=O)Nc2cccc(C#N)c2F)C1=O [Compound 1381],–,–,–,–,–,–,–,–,40%,60%,50%,60%,80%,80%,50%,60%,–,–,–,–
CN1C[C@H](c2ccc(C(F)(F)F)nc2)[C@@H](C(=O)Nc2ccc(F)c(F)c2F)C1=O [Compound 1373],–,–,–,–,–,–,–,–,90%,90%,60%,70%,–,–,60%,60%,80%,80%,–,–
COc1ccc([C@H]2CN(C)C(=O)[C@@H]2C(=O)Nc2ccccc2SC)c(OC)c1 [Compound 1216],0%,0%,0%,0%,–,–,0%,0%,–,–,–,–,–,–,–,–,–,–,0%,40%
COc1cc(C(F)(F)F)ccc1[C@H]1CNC(=O)[C@@H]1C(=O)Nc1cccc(F)c1F [Compound 1203],40%,70%,20%,30%,–,–,50%,60%,–,–,–,–,–,–,–,–,–,–,40%,60%
COc1cc([C@H]2CN(C)C(=O)[C@@H]2C(=O)Nc2ccccc2SC)cc(OC)c1OC [Compound 1218],0%,0%,0%,0%,–,–,0%,0%,–,–,–,–,–,–,–,–,–,–,0%,20%
Cc1cccc([C@H]2CN(C)C(=O)[C@@H]2C(=O)Nc2cccc(F)c2C)c1 [Compound 1233],70%,80%,0%,30%,80%,80%,20%,60%,–,–,–,–,–,–,–,–,–,–,–,–
